What was measured:
[1] = tested on: Oryza sativa, (L.) Tebonnet; assay: Rice tolerance to post-transplant applications under flooded paddy conditions (Example 187), ORYSAT (Rice, Tebonnet); settings: rated three to four weeks after treatment; on herbicidal effect rating ORYSAT: meaning of each grade not given here
[2] = tested on: Cyperus serotinus, Rottb.; assay: Preemergence weed control under flooded paddy conditions, CYPSE (Flatsedge); type: in vivo; settings: rated three to four weeks after treatment; on herbicidal effect rating, CYPSE: meaning of each grade not given here
[3] = tested on: Cyperus iria; assay: Preemergence weed control under flooded paddy conditions, CYPIR (Rice Flatsedge); type: in vivo; settings: flooded paddy, rated three to four weeks after treatment; on herbicidal effect rating, CYPIR: meaning of each grade not given here
[4] = tested on: Monochoria vaginalis, Presl.; assay: Preemergence weed control under flooded paddy conditions, MOOVA (Monochoria); type: in vivo; settings: flooded paddy, rated three to four weeks after treatment; on herbicidal effect rating, MOOVA: meaning of each grade not given here
[5] = tested on: Echinochloa oryzoides (Ard.) Fritsch.; assay: Preemergence weed control under flooded paddy conditions, ECHORC (Watergrass (Calif.)); type: in vivo; settings: flooded paddy, rated three to four weeks after treatment; on herbicidal effect rating, ECHORC: meaning of each grade not given here
[6] = tested on: Sagittaria pygmaea, L.; assay: Preemergence weed control under flooded paddy conditions, SAGPY (Arrowhead (Pygmaea)); type: in vivo; settings: flooded paddy, rated three to four weeks after treatment; on herbicidal effect rating, SAGPY: meaning of each grade not given here
[7] = 0.0313 kg/ha, preemergence weeds
[8] = 0.0625 kg/ha, preemergence weeds
[9] = 0.1250 kg/ha, preemergence weeds
[10] = 0.2500 kg/ha, preemergence weeds
[11] = Rate 0.0320 kg/ha, preemergence
[12] = Rate 0.0620 kg/ha, preemergence
[13] = Rate 0.1250 kg/ha, preemergence
[14] = Rate 0.2500 kg/ha, preemergence

COC(=O)C(C)Oc1ccc(I)cc1-c1nsc2ccc(-n3c(=O)cc(C(F)(F)F)n(C)c3=O)cc12 (stereo not shown) [Example 460, Propionic acid, 2-{2-{5-[3,6-dihydro-3-methyl-2,6-dioxo-4-(trifluoromethyl)-1(2H)-pyrimidinyl]-1,2-benzisothiazol-3-yl}-4-iodophenoxy}-, methyl ester]
ORYSAT herbicidal rating (rice tolerance) ([1]; 0.0320 kg/ha): 4.0 | ORYSAT herbicidal rating (rice tolerance) ([1]; 0.0620 kg/ha): 4.0 | ORYSAT herbicidal rating (rice tolerance) ([1]; 0.1250 kg/ha): 4.0 | ORYSAT herbicidal rating (rice tolerance) ([1]; 0.2500 kg/ha): 5.0 | CYPSE herbicidal rating ([2]; 0.1250 kg/ha, preemergence): 0.0 | CYPSE herbicidal rating ([2]; 0.2500 kg/ha, preemergence): 0.0 | CYPIR herbicidal rating ([3]; 0.0320 kg/ha, preemergence): 0.0 | CYPIR herbicidal rating ([3]; 0.0620 kg/ha, preemergence): 2.0 | CYPIR herbicidal rating ([3]; 0.1250 kg/ha, preemergence): 3.0 | CYPIR herbicidal rating ([3]; 0.2500 kg/ha, preemergence): 3.0 | MOOVA herbicidal rating ([4]; 0.0320 kg/ha, preemergence): 3.0 | MOOVA herbicidal rating ([4]; 0.0620 kg/ha, preemergence): 4.0 | MOOVA herbicidal rating ([4]; 0.1250 kg/ha, preemergence): 4.0 | MOOVA herbicidal rating ([4]; 0.2500 kg/ha, preemergence): 4.0 | ECHORC herbicidal rating ([5]; 0.0320 kg/ha, preemergence): 6.0 | ECHORC herbicidal rating ([5]; 0.0620 kg/ha, preemergence): 7.0 | ECHORC herbicidal rating ([5]; 0.1250 kg/ha, preemergence): 9.0 | ECHORC herbicidal rating ([5]; 0.2500 kg/ha, preemergence): 9.0 | SAGPY herbicidal rating ([6]; 0.0320 kg/ha, preemergence): 0.0 | SAGPY herbicidal rating ([6]; 0.0620 kg/ha, preemergence): 0.0 | SAGPY herbicidal rating ([6]; 0.1250 kg/ha, preemergence): 3.0 | SAGPY herbicidal rating ([6]; 0.2500 kg/ha, preemergence): 3.0

CCN(CC)c1nsc2ccc(-n3c(=O)cc(C(F)(F)F)n(C)c3=O)cc12 [Example 118, 3-[3-(Diethylamino)-1,2-benzisothiazol-5-yl]-1-methyl-6-(trifluoromethyl)-2,4(1H,3H)-pyrimidinedione]
herbicidal effect rating, ORYSAT (rice tolerance) ([1]; 0.0313 kg/ha): 0.0 | herbicidal effect rating, ORYSAT (rice tolerance) ([1]; 0.0625 kg/ha): 0.0 | herbicidal effect rating, ORYSAT (rice tolerance) ([1]; 0.1250 kg/ha): 0.0 | herbicidal effect rating, ORYSAT (rice tolerance) ([1]; 0.2500 kg/ha): 0.0 | herbicidal effect rating, CYPSE [2, 7]: 0.0 | herbicidal effect rating, CYPSE [2, 8]: 0.0 | herbicidal effect rating, CYPSE [2, 9]: 0.0 | herbicidal effect rating, CYPSE [2, 10]: 0.0 | herbicidal effect rating, CYPIR [3, 7]: 0.0 | herbicidal effect rating, CYPIR [3, 8]: 0.0 | herbicidal effect rating, CYPIR [3, 9]: 0.0 | herbicidal effect rating, CYPIR [3, 10]: 0.0 | herbicidal effect rating, MOOVA [4, 7]: 0.0 | herbicidal effect rating, MOOVA [4, 8]: 0.0 | herbicidal effect rating, MOOVA [4, 9]: 0.0 | herbicidal effect rating, MOOVA [4, 10]: 0.0 | herbicidal effect rating, ECHORC [5, 7]: 0.0 | herbicidal effect rating, ECHORC [5, 8]: 0.0 | herbicidal effect rating, ECHORC [5, 9]: 0.0 | herbicidal effect rating, ECHORC [5, 10]: 0.0 | herbicidal effect rating, SAGPY [6, 7]: 0.0 | herbicidal effect rating, SAGPY [6, 8]: 0.0 | herbicidal effect rating, SAGPY [6, 9]: 0.0 | herbicidal effect rating, SAGPY [6, 10]: 0.0

CCCCCCCCCCCCS(=O)(=O)NC(=O)c1nsc2ccc(-n3c(=O)cc(C(F)(F)F)n(C)c3=O)cc12 [Example 358, 1,2-Benzisothiazole-3-carboxamide, 5-[3,6-dihydro-3-methyl-2,6-dioxo-4-(trifluoromethyl)-1(2H)-pyrimidinyl]-N-(dodecylsulfonyl)-]
herbicidal effect rating ORYSAT ([1]; Rate 0.0320 kg/ha): 2.0 | herbicidal effect rating ORYSAT ([1]; Rate 0.0620 kg/ha): 3.0 | herbicidal effect rating ORYSAT ([1]; Rate 0.1250 kg/ha): 3.0 | herbicidal effect rating ORYSAT ([1]; Rate 0.2500 kg/ha): 3.0 | herbicidal effect rating, CYPSE [2, 11]: 0.0 | herbicidal effect rating, CYPSE [2, 12]: 0.0 | herbicidal effect rating, CYPSE [2, 13]: 0.0 | herbicidal effect rating, CYPSE [2, 14]: 0.0 | herbicidal effect rating, CYPIR [3, 11]: 0.0 | herbicidal effect rating, CYPIR [3, 12]: 0.0 | herbicidal effect rating, CYPIR [3, 13]: 0.0 | herbicidal effect rating, CYPIR [3, 14]: 7.0 | herbicidal effect rating, MOOVA [4, 11]: 9.0 | herbicidal effect rating, MOOVA [4, 12]: 9.0 | herbicidal effect rating, MOOVA [4, 13]: 9.0 | herbicidal effect rating, MOOVA [4, 14]: 9.0 | herbicidal effect rating, ECHORC [5, 11]: 4.0 | herbicidal effect rating, ECHORC [5, 12]: 5.0 | herbicidal effect rating, ECHORC [5, 13]: 5.0 | herbicidal effect rating, ECHORC [5, 14]: 5.0 | herbicidal effect rating, SAGPY [6, 11]: 5.0 | herbicidal effect rating, SAGPY [6, 12]: 5.0 | herbicidal effect rating, SAGPY [6, 13]: 6.0 | herbicidal effect rating, SAGPY [6, 14]: 6.0

CC(C)=CCOC(=O)COc1ccc(C)cc1-c1nsc2ccc(-n3c(=O)cc(C(F)(F)F)n(C)c3=O)cc12 [Example 187, 3-Methyl-2-butenyl {{2-{5-[3,6-dihydro-3-methyl-2,6-dioxo-4-(trifluoromethyl)-1(2H)-pyrimidinyl]-1,2-benzisothiazol-3-yl}-p-tolyl}oxy}acetate]
herbicidal effect rating, ORYSAT (rice tolerance) ([1]; 0.0313 kg/ha): 2.0 | herbicidal effect rating, ORYSAT (rice tolerance) ([1]; 0.0625 kg/ha): 3.0 | herbicidal effect rating, ORYSAT (rice tolerance) ([1]; 0.1250 kg/ha): 3.0 | herbicidal effect rating, ORYSAT (rice tolerance) ([1]; 0.2500 kg/ha): 6.0 | herbicidal effect rating, CYPSE [2, 7]: 0.0 | herbicidal effect rating, CYPSE [2, 8]: 0.0 | herbicidal effect rating, CYPSE [2, 9]: 0.0 | herbicidal effect rating, CYPSE [2, 10]: 0.0 | herbicidal effect rating, CYPIR [3, 7]: 0.0 | herbicidal effect rating, CYPIR [3, 8]: 0.0 | herbicidal effect rating, CYPIR [3, 9]: 2.0 | herbicidal effect rating, CYPIR [3, 10]: 4.0 | herbicidal effect rating, MOOVA [4, 7]: 8.0 | herbicidal effect rating, MOOVA [4, 8]: 9.0 | herbicidal effect rating, MOOVA [4, 9]: 9.0 | herbicidal effect rating, MOOVA [4, 10]: 9.0 | herbicidal effect rating, ECHORC [5, 7]: 0.0 | herbicidal effect rating, ECHORC [5, 8]: 2.0 | herbicidal effect rating, ECHORC [5, 9]: 6.0 | herbicidal effect rating, ECHORC [5, 10]: 9.0 | herbicidal effect rating, SAGPY [6, 7]: 0.0 | herbicidal effect rating, SAGPY [6, 8]: 0.0 | herbicidal effect rating, SAGPY [6, 9]: 0.0 | herbicidal effect rating, SAGPY [6, 10]: 0.0

Cc1ccc(OCC(=O)N(C(C)C)C(C)C)c(-c2nsc3ccc(-n4c(=O)cc(C(F)(F)F)n(C)c4=O)cc23)c1 [Example 61, 3-{3-{6-[(Diisopropylcarbamoyl)methoxy]-m-tolyl}-1,2-benzisothiazol-5-yl}-1-methyl-6-(trifluoromethyl)-2,4(1H,3H)-pyrimidinedione]
herbicidal effect rating, ORYSAT (rice tolerance) ([1]; 0.0313 kg/ha): 0.0 | herbicidal effect rating, ORYSAT (rice tolerance) ([1]; 0.0625 kg/ha): 0.0 | herbicidal effect rating, ORYSAT (rice tolerance) ([1]; 0.1250 kg/ha): 0.0 | herbicidal effect rating, ORYSAT (rice tolerance) ([1]; 0.2500 kg/ha): 0.0 | herbicidal effect rating, CYPSE ([2]; 0.0313 kg/ha, preemergence): 0.0 | herbicidal effect rating, CYPSE ([2]; 0.0625 kg/ha, preemergence): 0.0 | herbicidal effect rating, CYPSE ([2]; 0.1250 kg/ha, preemergence): 0.0 | herbicidal effect rating, CYPSE ([2]; 0.2500 kg/ha, preemergence): 0.0 | herbicidal effect rating, CYPIR ([3]; 0.0313 kg/ha, preemergence): 0.0 | herbicidal effect rating, CYPIR ([3]; 0.0625 kg/ha, preemergence): 0.0 | herbicidal effect rating, CYPIR ([3]; 0.1250 kg/ha, preemergence): 2.0 | herbicidal effect rating, CYPIR ([3]; 0.2500 kg/ha, preemergence): 2.0 | herbicidal effect rating, MOOVA ([4]; 0.0313 kg/ha, preemergence): 8.0 | herbicidal effect rating, MOOVA ([4]; 0.0625 kg/ha, preemergence): 8.0 | herbicidal effect rating, MOOVA ([4]; 0.1250 kg/ha, preemergence): 9.0 | herbicidal effect rating, MOOVA ([4]; 0.2500 kg/ha, preemergence): 9.0 | herbicidal effect rating, ECHORC ([5]; 0.0313 kg/ha, preemergence): 4.0 | herbicidal effect rating, ECHORC ([5]; 0.0625 kg/ha, preemergence): 7.0 | herbicidal effect rating, ECHORC ([5]; 0.1250 kg/ha, preemergence): 8.0 | herbicidal effect rating, ECHORC ([5]; 0.2500 kg/ha, preemergence): 8.0 | herbicidal effect rating, SAGPY ([6]; 0.0313 kg/ha, preemergence): 0.0 | herbicidal effect rating, SAGPY ([6]; 0.0625 kg/ha, preemergence): 0.0 | herbicidal effect rating, SAGPY ([6]; 0.1250 kg/ha, preemergence): 0.0 | herbicidal effect rating, SAGPY ([6]; 0.2500 kg/ha, preemergence): 0.0

Reference: EP0908457B1, “3-(1,2-benzisothiazol- and isoxazol-5-Y1)-2,4(1H,3H)-pyrimidinedione or thione and 3-(1,2-benzisothiazol- and isoxazol-5-y1)-4(3H)-pyrimidinone or thione herbicidal agents” (BASF AKTIENGESELLSCHAFT, priority 1997, dated 1999)
